In patent publication US20150133426A1, “SUBSTITUTED PYRROLOPYRIMIDINES” (BAYER PHARMA AKTIENGESELLSCHAFT, priority 2012, published 2015) one finds IC50 data, which are given here for 23 compounds.

Structures are written as SMILES.

The assay concerns the target T1, human full-length MKNK1 (Homo sapiens, UniProt Q9BUB5, T385D).
T1 construct: purchased Carna Biosciences 02-145; host or cells: insect cells, baculovirus expression system
The assay is described as follows: MKNK1 kinase high ATP assay (TR-FRET). The conditions noted are these: high ATP (2 mM), 15 min preincubation with enzyme, GST-MKNK1 (T344D). The format is biochemical. The protocol: MKNK1-inhibitory activity at high ATP of compounds of the present invention after their preincubation with MKNK1 was quantified employing the TR-FRET-based MKNK1 high ATP assay as described in the following paragraphs.
A recombinant fusion protein of Glutathione-S-Transferase (GST, N-terminally) and human full-length MKNK1 (amino acids 1-424 and T344D of accession number BAA 19885.1), expressed in insect cells using baculovirus expression system and purified via glutathione sepharose affinity chromatography, was purchased from Carna Biosciences (product no 02-145) and used as enzyme. As substrate for the kinase reaction the biotinylated peptide biotin-Ahx-IKKRKLTRRKSLKG (C-terminus in amide form) was used, which can be purchased e.g. from the company Biosyntan (Berlin-Buch, Germany).
For the assay 50 nL of a 100fold concentrated solution of the test compound in DMSO was pipetted into a black low volume 384well microtiter plate (Greiner Bio-One, Frickenhausen, Germany), 2 μL of a solution of MKNK1 in aqueous assay buffer [50 mM HEPES pH 7.5, 5 mM MgCl2, 1.0 mM dithiothreitol, 0.005% (v/v) Nonidet-P40 (Sigma)] was added and the mixture was incubated for 15 min at 22° C. to allow pre-binding of the test compounds to the enzyme before the start of the kinase reaction. Then the kinase reaction was started by the addition of 3 μL of a solution of adenosine-tri-phosphate (ATP, 3.3 mM=>final conc. in the 5 μL assay volume is 2 mM) and substrate (0.1 μM=>final conc. in the 5 μL assay volume is 0.06 μM) in assay buffer and the resulting mixture was incubated for a reaction time of 30 min at 22° C. The concentration of MKNK1 was adjusted depending of the activity of the enzyme lot and was chosen appropriate to have the assay in the linear range, typical concentrations were in the range of 0.003 μg/mL. The reaction was stopped by the addition of 5 μL of a solution of TR-FRET detection reagents (5 nM streptavidine-XL665 [Cisbio Bioassays, Codolet, France] and 1 nM anti-ribosomal protein […] (pSer236)-antibody from Invitrogen [#44921G] and 1 nM LANCE EU-W1024 labeled ProteinG [Perkin-Elmer, product no. AD0071]) in an aqueous EDTA-solution (100 mM EDTA, 0.1% (w/v) bovine serum albumin in 50 mM HEPES pH 7.5).
The resulting mixture was incubated for 1 h at 22° C. to allow the formation of complex between the phosphorylated biotinylated peptide and the detection reagents. Subsequently the amount of phosphorylated substrate was evaluated by measurement of the resonance energy transfer from the Eu-chelate to the streptavidine-XL. Therefore, the fluorescence emissions at 620 nm and 665 nm after excitation at 350 nm were measured in a TR-FRET reader, e.g. a Rubystar (BMG Labtechnologies, Offenburg, Germany) or a Viewlux (Perkin-Elmer). The ratio of the emissions at 665 nm and at […] was taken as the measure for the amount of phosphorylated substrate. The data were normalised (enzyme reaction without inhibitor=0% inhibition, all other assay components but no enzyme=100% inhibition).
(In TR-FRET formats the signal depends on donor and acceptor labels being close together.)

T1 sequence (Q9BUB5 1-424 isoform Q9BUB5-2 T344D): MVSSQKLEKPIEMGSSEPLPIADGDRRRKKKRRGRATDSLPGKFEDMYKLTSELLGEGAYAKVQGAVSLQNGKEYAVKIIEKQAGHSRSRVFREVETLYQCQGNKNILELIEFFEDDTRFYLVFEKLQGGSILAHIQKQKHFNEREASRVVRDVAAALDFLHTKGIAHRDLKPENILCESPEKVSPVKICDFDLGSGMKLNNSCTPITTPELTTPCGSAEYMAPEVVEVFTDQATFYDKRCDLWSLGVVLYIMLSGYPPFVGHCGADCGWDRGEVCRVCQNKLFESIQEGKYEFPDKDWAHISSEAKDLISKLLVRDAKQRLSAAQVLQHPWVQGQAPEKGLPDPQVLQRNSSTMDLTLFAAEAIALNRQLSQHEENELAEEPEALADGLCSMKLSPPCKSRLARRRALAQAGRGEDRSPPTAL

As to `CCOC(=O)C1CCc2[nH]c3ncnc(Nc4ccc5[nH]ncc5c4)c3c2C1` (racemic) [Example 5, (RS)-Ethyl 4-(1H-indazol-5-ylamino)-6,7,8,9-tetrahydro-5H-pyrimido[4,5-b]indole-6-carboxylate], the IC50 is 18 nM.

As to `O=C(O)C1CCc2[nH]c3ncnc(Nc4ccc5[nH]ncc5c4)c3c2C1` (racemic) [Example 6, (RS)-4-(1H-Indazol-5-ylamino)-6,7,8,9-tetrahydro-5H-pyrimido[4,5-b]indole-6-carboxylic acid], half-maximal inhibition (IC50) required 89 nM.

In the case of `CCNC(=O)C1CCc2[nH]c3ncnc(Nc4ccc5[nH]ncc5c4)c3c2C1` (racemic) [Example 7, (RS)—N-Ethyl-4-(1H-indazol-5-ylamino)-6,7,8,9-tetrahydro-5H-pyrimido[4,5-b]indole-6-carboxamide], the IC50 came to 20 nM.

`CS(=O)(=O)CCCNC(=O)C1CCc2[nH]c3ncnc(Nc4ccc5[nH]ncc5c4)c3c2C1` (racemic) [Example 14, (RS)-4-(1H-Indazol-5-ylamino)-N-[3-(methylsulfonyl)propyl]-6,7,8,9-tetrahydro-5H-pyrimido[4,5-b]indole-6-carboxamide] yielded a concentration for half-maximal inhibition (IC50) of 8 nM.

The compound `O=C(NC1CC1)C1CCc2[nH]c3ncnc(Nc4ccc5[nH]ncc5c4)c3c2C1` (racemic) [Example 15, (RS)—N—Cyclopropyl-4-(1H-indazol-5-ylamino)-6,7,8,9-tetrahydro-5H-pyrimido[4,5-b]indole-6-carboxamide] gave an IC50 of 19 nM.

With `O=C(Nc1ccccc1)C1CCc2[nH]c3ncnc(Nc4ccc5[nH]ncc5c4)c3c2C1` (racemic) [Example 16, (RS)-4-(1H-Indazol-5-ylamino)-N-phenyl-6,7,8,9-tetrahydro-5H-pyrimido[4,5-b]indole-6-carboxamide], 15 nM corresponded to half-maximal inhibition (IC50).

For the compound `O=C(C1CCc2[nH]c3ncnc(Nc4ccc5[nH]ncc5c4)c3c2C1)N1CC(F)(F)C1` (racemic) [Example 17, (RS)-(3,3-Difluoroazetidin-1-yl)[4-(1H-indazol-5-ylamino)-6,7,8,9-tetrahydro-5H-pyrimido[4,5-b]indol-6-yl]methanone], the IC50 came out at 46 nM.

`COc1cc(Cl)c(Cl)cc1Nc1ncnc2[nH]c3c(c12)CC(C(=O)O)CC3` (racemic) [Example 18, (RS)-4-[(4,5-Dichloro-2-methoxyphenyl)amino]-6,7,8,9-tetrahydro-5H-pyrimido[4,5-b]indole-6-carboxylic acid] gave an IC50 of 24 nM.

As to `COc1cc(Cl)c(Cl)cc1Nc1ncnc2[nH]c3c(c12)CC(C(=O)NC1CC1)CC3` (racemic) [Example 20, (RS)—N-Cyclopropyl-4-[(4,5-dichloro-2-methoxyphenyl)amino]-6,7,8,9-tetrahydro-5H-pyrimido[4,5-b]indole-6-carboxamide], the concentration for half-maximal inhibition (IC50) came to 6 nM.

Take `CCNC(=O)C1CCc2[nH]c3ncnc(Nc4cc(Cl)c(Cl)cc4OC)c3c2C1` (racemic) [Example 21, (RS)-4-[(4,5-Dichloro-2-methoxyphenyl)amino]-N-ethyl-6,7,8,9-tetrahydro-5H-pyrimido[4,5-b]indole-6-carboxamide]: the IC50 stood at 12 nM.

The compound `COc1cc(Cl)c(Cl)cc1Nc1ncnc2[nH]c3c(c12)CC(C(=O)Nc1ccccc1)CC3` (racemic) [Example 22, (RS)-4-[(4,5-Dichloro-2-methoxyphenyl)amino]-N-phenyl-6,7,8,9-tetrahydro-5H-pyrimido[4,5-b]indole-6-carboxamide] yielded an IC50 of 313 nM.

In turn, `CC(C)Oc1cc(F)ccc1Nc1ncnc2c1c1c(n2C)CCC(C(=O)NCCCS(C)(=O)=O)C1` (racemic) [Example 25, (RS)-4-[(4-Fluoro-2-isopropoxyphenyl)amino]-9-methyl-N-[3-(methylsulfonyl)propyl]-6,7,8,9-tetrahydro-5H-pyrimido[4,5-b]indole-6-carboxamide] gave a concentration for half-maximal inhibition (IC50) of 381 nM.

Turning to `Cn1c2c(c3c(Nc4ccc5[nH]ncc5c4)ncnc31)CC(C(=O)NCCCS(C)(=O)=O)CC2` (racemic) [Example 26, (RS)-4-(1H-Indazol-5-ylamino)-9-methyl-N-[3-(methylsulfonyl)propyl]-6,7,8,9-tetrahydro-5H-pyrimido[4,5-b]indole-6-carboxamide], the midpoint of inhibition, the IC50, lay at 1740 nM.

In turn, `CC(C)Oc1cc(F)ccc1Nc1ncnc2[nH]c3c(c12)CC(C(=O)NCCCS(C)(=O)=O)CC3` (racemic) [Example 28, (RS)-4-{[4-Fluoro-2-(propan-2-yloxy)phenyl]amino}-N-[3-(methylsulfonyl)propyl]-6,7,8,9-tetrahydro-5H-pyrimido[4,5-b]indole-6-carboxamide] gave a concentration for half-maximal inhibition (IC50) of 8 nM.

Compound `CS(=O)(=O)CCCNC(=O)C1CCc2[nH]c3ncnc(Nc4ccc5[nH]c(=O)sc5c4)c3c2C1` (racemic) [Example 29, (RS)—N-[3-(Methylsulfonyl)propyl]-4-[(2-oxo-2,3-dihydro-1,3-benzothiazol-6-yl)amino]-6,7,8,9-tetrahydro-5H-pyrimido[4,5-b]indole-6-carboxamide] showed an IC50 of 14 nM.

Take `CS(=O)(=O)CCCNC(=O)C1CCc2[nH]c3ncnc(Nc4ccccc4N4CCOCC4)c3c2C1` (racemic) [Example 30, (RS)—N-[3-(Methylsulfonyl)propyl]-4-{[2-(morpholin-4-yl)phenyl]amino}-6,7,8,9-tetrahydro-5H-pyrimido[4,5-b]indole-6-carboxamide]: 52 nM corresponded to half-maximal inhibition (IC50).

In turn, `CS(=O)(=O)CCCNC(=O)C1CCc2[nH]c3ncnc(Nc4ccc(OC(F)F)cc4)c3c2C1` (racemic) [Example 31, (RS)-4-{[4-(Difluoromethoxy)phenyl]amino}-N-[3-(methylsulfonyl)propyl]-6,7,8,9-tetrahydro-5H-pyrimido[4,5-b]indole-6-carboxamide] registered a half-maximal inhibitory concentration (IC50) of 2750 nM.

On to `CS(=O)(=O)CCCNC(=O)C1CCc2[nH]c3ncnc(Nc4ccccc4OC(F)(F)F)c3c2C1` (racemic) [Example 32, (RS)—N-[3-(Methylsulfonyl)propyl]-4-{[2-(trifluoromethoxy)phenyl]amino}-6,7,8,9-tetrahydro-5H-pyrimido[4,5-b]indole-6-carboxamide], for which the IC50 is 746 nM.

Compound `Cc1cc(=O)oc2cc(Nc3ncnc4[nH]c5c(c34)CC(C(=O)NCCCS(C)(=O)=O)CC5)ccc12` (racemic) [Example 33, (RS)-4-[(4-Methyl-2-oxo-2H-chromen-7-yl)amino]-N-[3-(methylsulfonyl)propyl]-6,7,8,9-tetrahydro-5H-pyrimido[4,5-b]indole-6-carboxamide] gave a concentration for half-maximal inhibition (IC50) of 394 nM.

In turn, `COc1cc(Nc2ncnc3[nH]c4c(c23)CC(C(=O)NCCCS(C)(=O)=O)CC4)ccc1F` (racemic) [Example 34, (RS)-4-[(4-Fluoro-3-methoxyphenyl)amino]-N-[3-(methylsulfonyl)propyl]-6,7,8,9-tetrahydro-5H-pyrimido[4,5-b]indole-6-carboxamide] yielded an IC50 of 306 nM.

`CC(C)Oc1ccc(Nc2ncnc3[nH]c4c(c23)CC(C(=O)NCCCS(C)(=O)=O)CC4)cc1` (racemic) [Example 35, (RS)—N-[3-(Methylsulfonyl)propyl]-4-{[4-(propan-2-yloxy)phenyl]amino}-6,7,8,9-tetrahydro-5H-pyrimido[4,5-b]indole-6-carboxamide] gave a concentration for half-maximal inhibition (IC50) of 9660 nM.

For the compound `CS(=O)(=O)CCCNC(=O)C1CCc2[nH]c3ncnc(Nc4ccc5c(c4)OC(F)(F)O5)c3c2C1` (racemic) [Example 36, (RS)-4-[(2,2-Difluoro-1,3-benzodioxol-5-yl)amino]-N-[3-(methylsulfonyl)propyl]-6,7,8,9-tetrahydro-5H-pyrimido[4,5-b]indole-6-carboxamide], the IC50 amounted to 3170 nM.

`COc1cc(F)ccc1Nc1ncnc2[nH]c3c(c12)CC(C(=O)NCCCS(C)(=O)=O)CC3` (racemic) [Example 37, (RS)-4-[(4-Fluoro-2-methoxyphenyl)amino]-N-[3-(methylsulfonyl)propyl]-6,7,8,9-tetrahydro-5H-pyrimido[4,5-b]indole-6-carboxamide] yielded an IC50 of 145 nM.

A word on the IC50: it is the concentration at which inhibition is half-maximal. A high value points to weaker potency.
